# In paper PMC9706033 (Journal of Microbiology and Biotechnology, 2021):
# Read-outs that look alike come from different tables or passages of the source.
# Key:
# [1] = Water solubility determination (UPLC of supernatant); format: physicochemical
# Procedure: Each sample was centrifuged at 16,000 g for 30 min. Subsequently, the supernatant of each sample was filtered, and the concentration of the compound in the supernatant as a water-soluble component was estimated by UPLC analysis.
# tyrosinase [2] = target: T1, tyrosinase (Mus musculus, UniProt P11344); assay: Cellular tyrosinase activity in α-MSH-stimulated B16F10 melanoma cells; format: cell-based; settings: 48 h; for inhibition at 300 µM: B16-F10
# T1 construct: endogenous in cells; host or cells: B16F10 melanoma cells, α-MSH-stimulated
# T1 sequence (P11344 19-533): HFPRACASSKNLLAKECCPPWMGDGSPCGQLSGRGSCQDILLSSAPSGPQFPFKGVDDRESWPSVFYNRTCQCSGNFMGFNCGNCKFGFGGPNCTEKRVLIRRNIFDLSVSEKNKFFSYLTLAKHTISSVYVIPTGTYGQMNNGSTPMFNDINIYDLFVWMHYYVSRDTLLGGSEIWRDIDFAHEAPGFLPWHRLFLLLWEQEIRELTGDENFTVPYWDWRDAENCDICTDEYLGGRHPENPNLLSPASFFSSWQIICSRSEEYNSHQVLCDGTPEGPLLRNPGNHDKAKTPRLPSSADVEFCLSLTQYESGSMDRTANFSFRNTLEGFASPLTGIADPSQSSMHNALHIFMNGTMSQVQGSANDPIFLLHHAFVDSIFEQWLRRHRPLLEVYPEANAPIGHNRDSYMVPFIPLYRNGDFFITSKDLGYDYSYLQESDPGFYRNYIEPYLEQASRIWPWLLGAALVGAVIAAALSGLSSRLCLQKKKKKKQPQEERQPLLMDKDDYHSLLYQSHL
# B16F10 melanoma cells [3] = assay: Cellular melanin content in α-MSH-stimulated B16F10 melanoma cells; format: cell-based; settings: 72 h
# Procedure: Cellular melanin content was determined by the method of Park et al. with minor modifications. The cells (5 × 10^4 cells/well) were seeded into 6-well plates and cultured for 24 h. […] Then, the cells were washed with PBS and lysed with lysis buffer, and the supernatant was removed by centrifugation at 16,000 g for 15 min at 4°C. The protein concentration of the supernatant was determined by the Bradford method. The pellet was dissolved in 1 M NaOH and measured at 405 nm using a microplate reader.
# B16F10 cells = assay: Cellular uptake assay (UPLC of medium and cell lysates); format: cell-based; settings: after 24 h incubation with B16F10 cells; resveratrol 20 μM, glucosides 100 μM
# Procedure: The cellular uptake assay was conducted following the method described by Moon et al. with minor modification. The B16F10 cells (2 × 10^5 cells/well) were seeded into 6-well plates. […] After 24 h of incubation, the medium was removed, and the cells were washed with PBS and then scraped off. […] The lysate was centrifuged at 16,000 g for 10 min and filtered by a 0.2 μm syringe filter. The cell extracts were analyzed by UPLC.
# [4] = Stability against oxidative degradation in buffer solutions and cell culture medium; format: physicochemical; settings: 37°C, up to 72 h, read-out: Half-life, t1/2 (converted)
# [5] = humans; cited from earlier work
# polyphenol oxidases = settings: cited from earlier work
# [6] = Hydroxyl radical scavenging assay
# [7] = DPPH free-radical scavenging assay
# Procedure: DPPH free-radical scavenging capability and ferric reducing antioxidant power (FRAP) assay results were evaluated as described previously by Moon et al.. Hydroxy radical-scavenging assay was measured as described by Su et al.. Vitamin C was used as a positive control. Each assay was measured from 1 min to 30 h. The DPPH radical-scavenging activity was calculated as follows: DPPH radical-scavenging activity (%) = (1-Asample/Ablank) × 100, where Asample is the absorbance in the presence of the sample, and Ablank is the absorbance of the blank. Hydroxy radical-scavenging activity was calculated in accordance with the following formula: Hydroxy radical scavenging activity (%) = (Asample-Acontrol)/(Ablank-Acontrol) × 100, where Asample is the absorbance in the presence of the sample, Acontrol is the absorbance of the blank with H2O2, and Ablank is the absorbance of the blank without H2O2.
# B16F10 melanoma cells [8] = format: cell-based; settings: mouse, 24 h
# Procedure: Cell culture and cell viability assay. B16F10 melanoma cells were maintained in DMEM supplemented with 10% FBS, 100 U/ml penicillin, and 100 μg/ml streptomycin. The cells were cultured at 37°C under 5% CO2 in a humidified culture chamber. Cell viability was determined by 3-(4,5-dimethythiazol-2-yl)-2,5-diphenyl tetrazolium bromide (MTT) assay. The cells (6 × 10^3 cells/well) were seeded into 96-well plates and cultured for 24 h. […] After 24 h, the cells were washed with PBS, MTT reagent (0.5 mg/ml) was added to each well, and the cells were incubated at 37°C for 1 h. The supernatant in each well was discarded for the treatment with DMSO, which was used to dissolve the formazan crystals formed from viable cells. After the DMSO treatment, the absorbance of each well was measured at 595 nm using a microplate reader (Epoch, Biotek, USA).
# [9] = parameters: method as in PMID 9599270; settings: read-out: Antioxidant activity IC50; cited from earlier work
# tyrosinase [10] = tested on: tyrosinase; parameters: method as in PMID 7765966; settings: tyrosinase of B16 mouse melanoma; cited from earlier work
# [11] = distilled water, sonicated 1 h at room temperature
# [12] = 100 μM, α-MSH-stimulated B16F10
# [13] = Buffer pH 2.0 (hydrochloric acid)
# [14] = DMEM cell culture medium without FBS, DMEM (without FBS)
# [15] = phosphate-buffered saline, PBS (pH 7.4)
# [16] = simulated body fluid, SBF (pH 7.4)
structure (smiles),measurement,setting,value
"OC[C@H]1O[C@H](Oc2ccc(C=Cc3cc(O)cc(O)c3)cc2)[C@H](O)[C@@H](O)[C@@H]1O [R1, resveratrol-4′-O-α-glucoside]",Water solubility,[1]; [11],515 µg/mL
same,Water solubility (molar),[1]; [11],1319 µM
"OC[C@H]1O[C@H](Oc2cc(O)cc(C=Cc3ccc(O)cc3)c2)[C@H](O)[C@@H](O)[C@@H]1O [R2, resveratrol-3-O-α-glucoside]",Water solubility,[1],471 µg/mL
same,Water solubility (molar),[1],1206 µM
OC[C@H]1O[C@@H](Oc2ccc(O)cc2)[C@H](O)[C@@H](O)[C@@H]1O [arbutin],Suppression of tyrosinase activity,tyrosinase [2]; [12],15.8%
same,inhibition at 300 µM,tyrosinase [2]; α-MSH-stimulated B16F10,25.6%
same,Suppression of melanin synthesis,B16F10 melanoma cells [3]; 100 μM,51.2%
same,Suppression of melanin synthesis,B16F10 melanoma cells [3]; 300 μM,74.5%
"Oc1ccc(/C=C/c2cc(O)cc(O)c2)cc1 [resveratrol, trans-3,5,4′-trihydroxystilbene]",Amount remaining in the extracellular medium,B16F10 cells,59 % of the initial amount
same,half-life at 10 mM,[4]; [13],> 72 h
same,half-life at 10 mM,[4]; Buffer pH 9.0 (Tris-HCl),1.5 h
same,half-life at 10 mM,[4]; [14],> 72 h
same,half-life at 10 mM,[4]; [15],28 h
same,half-life at 10 mM,[4]; [16],44 h
same,Oral bioavailability,[5],less than 1%
same,Suppression of tyrosinase activity,"tyrosinase [2]; 20 μM, compared with cells treated with MSH alone",70.5%
same,Half-life (t1/2) in the reaction of polyphenol oxidases compared with piceid,polyphenol oxidases,three times shorter
same,EC50,[6]; at 30 min,138 µM
same,EC50,[7]; at 30 min,523 µM
same,EC50,[7]; at 5 h,118 µM
same,Effect on growth of B16F10 cells,B16F10 melanoma cells [8],inhibited the growth of B16F10 cells in a dose-dependent manner
same,Water solubility,[1]; [11],36 µg/mL
same,solubility at 1 h,"[1]; distilled water, sonicated 1 h at room temperature, read-out: Water solubility (molar)",157.7 µM
OC[C@H]1O[C@@H](Oc2ccc(/C=C/c3cc(O)cc(O)c3)cc2)[C@H](O)[C@@H](O)[C@@H]1O [resveratrol-4′-O-β-glucoside],IC50,[9],1000 µM
O=C1O[C@H]([C@@H](O)CO)C(O)=C1O [vitamin C],Time to scavenge the DPPH radical,[7],≤ 30 min
OC[C@H]1O[C@H](Oc2ccc(O)cc2)[C@H](O)[C@@H](O)[C@@H]1O [α-arbutin],"Inhibitory activity, times as strong as that of β-arbutin",tyrosinase [10],10 times
OC[C@H]1O[C@@H](Oc2cc(O)cc(/C=C/c3ccc(O)cc3)c2)[C@H](O)[C@@H](O)[C@@H]1O [β-piceid],half-life at 10 mM,[4]; [13],> 72 h
same,half-life at 10 mM,[4]; Buffer pH 9.0 (Tris-HCl),> 72 h
same,half-life at 10 mM,[4]; [14],> 72 h
same,half-life at 10 mM,[4]; [15],> 72 h
same,half-life at 10 mM,[4]; [16],> 72 h
same,IC50,[9],198 µM
same,Suppression of tyrosinase activity,tyrosinase [2]; [12],19.2%
same,inhibition at 300 µM,tyrosinase [2]; α-MSH-stimulated B16F10,29.7%
same,Suppression of melanin synthesis,B16F10 melanoma cells [3]; 100 μM,36.5%
same,Suppression of melanin synthesis,B16F10 melanoma cells [3]; 300 μM,46.3%
same,EC50,[6]; at 30 min,215 µM
same,EC50,[6]; at 5 h,53.7 µM
same,EC50,[7]; at 30 min,441 µM
same,EC50,[7]; at 5 h,699 µM
same,Concentration affecting proliferation of B16F10 cells,B16F10 melanoma cells [8],above 100 μM
same,solubility at 1 h,"[1]; thermodynamic from solid, distilled water, sonicated 1 h at room temperature, read-out: Water solubility",137 µg/mL
same,solubility at 1 h,"[1]; thermodynamic from solid, distilled water, sonicated 1 h at room temperature, read-out: Water solubility (molar)",351 µM
